The record followed here is patent publication US7846968B2, “Methods for QT interval control” (Janssen Pharmaceutica, N.V., priority 2005, dated 2010).

For one data set, the system named is healthy adults. As to the kind of experiment: Double-blind, randomized, 3-way crossover, placebo- and active-control study of cardiovascular (QT/QTc) effects. Format: in vivo, human. The following applies: for Mean change from pretreatment baseline in QTc interval (mean ΔQTc), Bazett correction / Mean change from pretreatment baseline in QTc interval (mean ΔQTc), Individual Correction Method / Mean change from pretreatment baseline in QTc interval (mean ΔQTc), Fridericia correction: moxifloxacin 400 mg single oral dose; for Mean change from pretreatment baseline in QTc interval (mean ΔQTc), Fridericia correction: time-matched baseline Day 0; for Maximum decrease in QTc-F compared to baseline: individual subjects; for Reduction of the mean QTc-F interval compared to pretreatment baseline (Day 0): stated as reduction; for Maximum decrease in QTc-F compared to baseline / Number of subjects with QTc shortening between 30 and 60 ms compared to baseline: QTc-F. The protocol: (§1) The study of the cardiovascular effects of a carbamate compound of the present invention, shown as Formula 7 above, and hereafter referred to as “the test compound” was a single-center, double-blind, randomized, 3-way crossover, placebo- and active-control study. The test compound was studied at a dose of 1,500 mg/day (750 mg twice daily) both after acute dosing ([…], Day 1) and at steady state (Day 7). The study also evaluated the delayed post-treatment effects on Days 8-10. Moxifloxacin (400 mg, single oral dose) was used as an active control for the evaluation of QT/QTc on both Days 1 and 7.
(§2) Of the 38 subjects enrolled, 35 completed all 3 treatment conditions (placebo, moxifloxacin, test compound). Two subjects withdrew electively after receiving the first 3 days of the last treatment period (1 in moxifloxacin and 1 in test compound), and the last one withdrew because of an adverse event (respiratory tract infection) after the first treatment period (placebo), and before receiving any other treatment. Thus, all 38 subjects completed placebo treatment, 36 subjects completed the test compound treatment (and an additional subject provided data for Days 0 and 1 on test compound), and 36 completed moxifloxacin treatment (and 1 provided data for Days 0 and 1 on moxifloxacin). All 38 subjects were included in the safety evaluation; all collected drug level measurements and all available ECG recordings were included in data analyses.
The study population consisted of 38 healthy adults (20 men and 18 women), age 18 to 50 years, with normal 12-lead ECG (normal sinus rhythm, QTc and QRS intervals) and no history of cardiovascular disease. Of the 38 subjects enrolled, 35 completed all 3 treatment conditions (placebo, moxifloxacin, test compound). Two subjects withdrew electively after receiving the first 3 days of the last treatment period (1 in moxifloxacin and 1 in test compound), and the last one withdrew because of an adverse event (respiratory tract infection) after the first treatment period (placebo), and before receiving any.
as §2, with “The study population consisted of 38 healthy adults (20 men and 18 women), age 18 to 50 years, with normal 12-lead ECG (normal sinus rhythm, QTc and QRS intervals) and no history of cardiovascular disease. Of” for “Of”, “completed” for “completed the”
During each treatment period, 11 12-lead ECGs were collected at the same time of the day on Day 0 (baseline), Day 1 (initial treatment), and Day 7 (steady-state treatment); 4 additional ECGs were collected at exactly 24, 36, 48, and 72 hours after the last dose of Day 7 (post-treatment).
All ECG recordings of the same subject were read by the same blinded cardiologist. The QT intervals, from the onset of the QRS complex to the end of the T wave, were determined by the method of overlapping medians. The key QTc variables used in the assessment are listed below. The change from baseline (ΔQTc) was calculated using time-matched values. The following parameters were calculated for each subject and treatment by averaging over all time points during the 12-hour dosing interval. […]

Data set [1] in a line: Pharmacokinetics / drug level measurements in the crossover QT study. Format: in vivo, human. The protocol: as §1
as §2, with “All 38 subjects were included in the safety evaluation; all collected drug level measurements and all available ECG recordings were included in data analyses.” left out

Where [2] appears, read: Day 1 (acute dosing), test compound 250 mg.
Where [3] appears, read: Day 1 (acute dosing), test compound 250 mg, averaged over 12-hour dosing interval.
The mark [4] stands for this setting: Day 7 (steady state), test compound 1,500 mg/day (750 mg twice daily).

As to `NC(=O)OC[C@@H](O)c1ccccc1Cl` [test compound], the “Gender effect with regard to QTc reduction” value with healthy adults (20 men and 18 women) was “no gender effect”. For the same compound, the results for the “Mean change from pretreatment baseline in QTc interval (mean ΔQTc), Bazett correction” value with healthy adults (setting [2]) and with healthy adults (setting [4]) were -3.2 ms and -7.4 ms, respectively. Also, the “Mean change from pretreatment baseline in QTc interval (mean ΔQTc), Individual Correction Method” value was -3.7 ms in the data set with healthy adults (setting [2]) and -12.1 ms in the data set with healthy adults (setting [4]). Also, the “Mean change from pretreatment baseline in QTc interval (mean ΔQTc), Fridericia correction” value was -3.1 ms in the data set with healthy adults (setting [3]) and -11.2 ms in the data set on healthy adults (setting [4]). Besides, the “Delayed post-treatment effect on QT/QTc intervals” value in the data set with healthy adults (Days 8-10) is listed as “no apparent delayed post-treatment effect”. Also, the “Maximum decrease in QTc-F compared to baseline” value in the data set on healthy adults was 47 ms. The “Reduction of the mean QTc-F interval compared to pretreatment baseline (Day 0)” value with healthy adults (after initial treatment (Day 1)) is given as 3.1 ms; with healthy adults (at steady state (Day 7)), 11.2 ms. In addition, the “Lowest QTc-F value” in the data set on healthy adults (observed in 3 subjects (2 test compound, 1 placebo)) is listed as 348 ms. For the same compound, the “Time after the last dose of Day 7 by which the QTc shortening effect disappeared” value with healthy adults (post-treatment ECGs at 24, 36, 48, 72 hours) was at most 24 h. For the same compound, the “Number of subjects with QTc-F slightly below 350 ms” value with healthy adults (steady state (Day 7)) was 2 subjects. Also, the “Number of subjects with QTc shortening between 30 and 60 ms compared to baseline” value in the data set on healthy adults (steady state (Day 7)) was determined as 14 subjects. In addition, in data set [1] (after single- and multiple-dose administration), the “Pharmacokinetics (linearity / dose proportionality)” value is “linear and proportional”.
Regarding `COc1c(N2C[C@@H]3CCCN[C@@H]3C2)c(F)cc2c(=O)c(C(=O)O)cn(C3CC3)c12` [Moxifloxacin, reference compound], the “Mean change from pretreatment baseline in QTc interval (mean ΔQTc), Bazett correction” value in the data set with healthy adults (setting [2]) is “+6.5 ms”; in the data set with healthy adults (setting [4]), “+3.2 ms”. Further, the figures for the “Mean change from pretreatment baseline in QTc interval (mean ΔQTc), Individual Correction Method” value in the data set with healthy adults (setting [2]) and with healthy adults (setting [4]) were “+6.6 ms” and “+0.8 ms”, respectively. The “Mean change from pretreatment baseline in QTc interval (mean ΔQTc), Fridericia correction” value with healthy adults (setting [3]) was “+6.7 ms”; in the data set on healthy adults (setting [4]), “+1.6 ms”. Also, the “Maximum decrease in QTc-F compared to baseline” value with healthy adults is recorded as 45 ms. In the data set with healthy adults (steady state (Day 7)), the “Number of subjects with QTc shortening between 30 and 60 ms compared to baseline” value is reported as 5 subjects. For the same compound, the “Systemic exposure between the 2 single doses” value in data set [1] (400 mg doses on Day 1 and Day 7) is on record as “consistent”.
